Data from patent publication US20250009783A1, “SULFONATED HYALURONIC ACID COMPOUND, PREPARATION METHOD THEREFOR AND APPLICATION THEREOF” (UNIVERSITY OF MACAU, priority 2021, published 2025).

Tested on: CAGA-TGF-β activity reporter cells
Assay: Test using TGF-β activity reporter cell (luciferase test)
Format: cell-based
Conditions: added alone: TGF-β 50 ng/ml, pro-TGF-β1 200 ng/ml, overnight, FIG. 6
Method: Method: CAGA-TGF-β activity reporter cells were plated (12-well plate) until the confluence reached 65%. Samples and reagents were added to different wells, respectively. The grouping and concentration were as follows. Group 1:2 ml of TGF-β (50 ng/ml); Group 2:2 ml of pro-TGF-β1 (200 ng/ml); Group 3:2 ml of LLC (200 ng/ml)+S-HA-9 (20 ug/ml); Group 4:2 ml of LLC (200 ng/ml)+PBS (1×); Group 5:2 ml of LLC (200 ng/ml)+S-HA-PBA-1 (20 ug/ml), the cells were stimulated overnight, the samples were collected, and cell lysate was obtained for luciferase test.

Substance | production of active TGF-β (reporter control groups)
TGF-β: transforming growth factor-β, control group 1 of the reporter cell test (50 ng/ml) | stimulated the production of active TGF-β
proTGF-β: pro-TGF-β1, control group 2 of the reporter cell test (200 ng/ml) | stimulated the production of a very small amount of active TGF-β
